Reference: US9187413B2, “Peripherally restricted FAAH inhibitors” (The Regents of the University of California, priority 2010, dated 2015)
Read-outs that look alike come from different tables or passages of the source.

Columns and labels:
[1] = system: blood-brain barrier transporters; assay: Co-administration of inhibitors of blood-brain barrier transporters with URB937; assay type: in vivo; conditions: rats, URB937 25 mg-kg^-1 i.p.
[2] = system: Fos protein; assay: Formalin-induced Fos expression in lumbar spinal cord; assay type: in vivo; conditions: rats, URB937 1 mg-kg^-1, i.p., lumbar spinal cord
Description: Fos expression. We measured Fos protein levels by quantitative immunocytochemistry^5 on slices of lumbar (L4/L5) spinal cord from male Sprague-Dawley rats.
Fos immunohistochemistry Two hours after formalin injection into the dorsal paw, rats received a lethal dose of Nembutal (50 mg-mL^−1). They were perfused through the heart with 100 mL of 1% heparinized phosphate buffered saline (PBS) followed by 300 mL of ice-cold 4% paraformaldehyde. The lumbar-sacral region of the spinal cord was collected from each rat. Spinal cords were post fixed in 4% paraformaldehyde at 4° C. for 24 h and then cryoprotected in 30% sucrose at 4° C. for 24-48 hours. Spinal cords were cryostat-cut into 40 μm transverse sections at the level of the lumbar enlargement (L4/L5). Free floating alternating sections were kept in a series of wells filled with PBS. Every fourth section was processed for Fos immunoreactivity to ensure that the same cell would not be counted twice. Endogenous peroxidases were inactivated by incubation in hydrogen peroxide. […]
Selection of sections and quantification of the number of Fos-positive cells was performed by an observer blinded to experimental conditions. […] Using Image J, Fos expressing cells were counted in each subdivision, regardless of staining intensity, by an observer blinded to experimental treatments.

[3] = system: formalin-induced nociception; assay: Formalin-induced pain behavior; assay type: in vivo; conditions: rats, 1 mg-kg^-1, i.p.
Description: Behavioral tests. We measured nocifensive responses elicited by i.p. injection of acetic acid in male Swiss and C57B1/6 (wild-type or FAAH-deficient) mice^40, intraplantar injection of carrageenan in male Swiss mice^20, intraplantar injection of formalin in male Sprague-Dawley rats^41, and sciatic nerve ligation in male Swiss mice^39.
Behavioral tests Acetic acid-induced writhing was measured in Swiss mice or C57B1/6 mice (wild-type and FAAH-deficient), as described^40 with minor modifications. Briefly, the mice were acclimated to the experimental room for 2 h. Each animal was injected with acetic acid (150 μL, 0.6% in saline) and placed into a glass cylinder. Abdominal stretches (extension of body and hind limbs) were counted for 20 min, starting 5 min after acetic acid injection. […] Behavior was scored by an observer blinded to the treatment conditions. Formalin-induced nociception was assessed in Sprague-Dawley rats, as described^41. […] Immediately after formalin injection, the rats were returned to the observation container and nocifensive behavior was recorded for 60 min with a video camera. Recordings were analyzed by observers blinded to treatment conditions. Nocifensive behavior was measured continuously for 60 min^41. […] Each 5-min bin was analyzed for time spent (1) lifting and (2) licking or biting the injected paw. […]

[4] = system: Pgp; assay: Drug transport assay through polarized TC7 monolayers; assay type: in vitro ADME; conditions: human, Caco-2, with verapamil (100 μM); TC7 monolayers, Pgp inhibitor verapamil (100 μM); read-out: B-A permeability with verapamil
Description: (§1) Drug transport assays. Assays were performed at Cerep Inc. (Redmond, Wash.), following protocols outlined in the company's web-site (http://www.cerep.fr).
(§2) Drug transport assays Transport assays were conducted at Cerep Inc. (Redmond, Wash.). Cellular permeability was determined in the apical (A) to basal (B) and the B to A direction in the presence of 10 μM compound in Hanks' buffered salt solution containing 1% dimethylsulfoxide (DMSO). Efflux ratios were calculated as the ratio of B-A to A-B permeabilities.

[5] = as above; assay type: in vitro ADME; conditions: human
Description: as §1, §2

[6] = Drug distribution coefficient n-octanol/buffer pH 7.4; assay type: physicochemical; conditions: n-octanol / aqueous buffer pH 7.4, 25±1° C., mean±sem, n=3; read-out: distribution coefficient, Log Doct,pH7.4
Description: Drug distribution coefficients. We determined Log D7.4,oct values at room temperature (25±1° C.) partitioning the solutes between n-octanol and an aqueous solution buffered at pH 7.4^36.

Q: What does the source list for NC(=O)c1cccc(-c2cc(OC(=O)NC3CCCCC3)ccc2O)c1 [Compound 1b, cyclohexylcarbamic acid 3′-carbamoyl-6-hydroxybiphenyl-3-yl ester]?
A: access of URB937 to the brain with Ko-143 ([1]; co-administration of BCRP inhibitor Ko-143): dose-dependent increase; access of URB937 to the brain with verapamil or probenecid ([1]; co-administration of verapamil or probenecid): no such effect; formalin-induced Fos expression [2]: lowered the Fos response to formalin; area under the curve of formalin-induced pain behavior [3]: decreased the area under the curve; Papp B→A at 10 μM [4]: 32.2 ×10⁻⁶ cm/s; recovery at 10 μM ([5]; Caco-2, TC7 monolayers, 10 μM compound, read-out: % recovery A-B): 83%; recovery at 10 μM ([5]; Caco-2, TC7 monolayers, 10 μM compound, read-out: % recovery B-A): 95%; recovery at 10 μM ([5]; Caco-2, with verapamil 100 μM, TC7 monolayers, verapamil (100 μM), read-out: % recovery B-A with verapamil): 94%; Papp A→B at 10 μM ([5]; Caco-2, TC7 monolayers, 10 μM compound, mean of 2 independent experiments, read-out: permeability A-B): 3.8 ×10⁻⁶ cm/s; Papp B→A at 10 μM ([5]; Caco-2, TC7 monolayers, 10 μM compound, mean of 2 independent experiments, read-out: permeability B-A): 37.1 ×10⁻⁶ cm/s; logD [6]: 3.03 ± 0.01
